Assay results taken from US20150246093A1, “ORAL FORMULATIONS OF ANGIOTENSIN” (TARIX PHARMACEUTICALS LTD., priority 2012, published 2015).
“And” between values parts separate entries of the source, which are not always exact repeats. Identical values can stand only once. Like-named read-outs stand apart in the source and are kept apart here.

Assay: Pharmacokinetics after intra-duodenal injection (ID) in anesthetized rats, model mimicking enteric-coated oral dosage form, plasma LC-MS
Type: in vivo, rat
Conditions: for Total mean A(1-7) exposure over the observation period: ID; for level at 0 h / level at 10 min / level at 20 min / level at 40 min / level at 1 h / level at 1.5 h / level at 5 min: read-out: Angiotensin (1-7) concentration
Protocol: This model mimics the release and absorption expected from an orally delivered enteric coated solid dosage form such as capsule or tablet.
After extraction, the samples were then transferred to ice-cold tubes containing a protease inhibitor cocktail. The samples were kept on ice until they were centrifuged at 4° C. to obtain plasma. The plasma supernatants were then frozen −70° C. until analysis using an LC-MS assay.
The oral delivery of an angiotensin (1-7) peptide (e.g., TXA127) was then evaluated in a rat model that mimics the release of the peptide into the intestine by enteric-coated capsule. Briefly, the duodenums of anesthetized rats were surgically exposed, and an angiotensin (1-7) peptide was delivered through a 27 gauge needle into the duodenum. A baseline was obtained by ID administration of an angiotensin (1-7) in PBS. Samples of blood was removed from the carotid artery before and 5, 10, 20, 40, 60 and 90 minutes after peptide administration. Subsequently, an angiotensin (1-7) peptide was administered ID in 400 mM citrate buffer (pH 3.5) and lauroyl-L-carnitine (LLC) (10 mg/ml), a formulation that mimics the contents of the enteric-coated capsules. In order to maximize the stability of TXA127 in rat circulation, captopril (e.g., 0.5 mg/ml or 5 mg/ml) may be added to the formulations. Blood samples were taken at the same time points as the baseline study and handled as described above for analysis.

[1] = ID 0.3 ml A [10 mg/ml in PBS], individual rats
[2] = ID 0.3 ml B [10 mg/ml, 10 mg/ml LLC, 400 mM Citrate pH 3.5, 150 mM NaCl], individual rats
[3] = ID 0.3 ml C [10 mg/ml, Captopril 0.5 mg/ml, 10 mg/ml LLC, 400 mM Citrate pH 3.5, 150 mM NaCl], individual rats
[4] = ID 0.3 ml C [10 mg/ml, Captopril 5 mg/ml, 10 mg/ml LLC, 400 mM Citrate pH 3.5, 150 mM NaCl], individual rats

Compound: CC[C@H](C)[C@H](NC(=O)[C@H](Cc1ccc(O)cc1)NC(=O)[C@@H](NC(=O)[C@H](CCCNC(=N)N)NC(=O)[C@@H](N)CC(=O)O)C(C)C)C(=O)N[C@@H](Cc1c[nH]cn1)C(=O)N1CCC[C@H]1C(=O)O [Angiotensin (1-7), Asp^1-Arg^2-Val^3-Tyr^4-Ile^5-His^6-Pro^7]
- AUC0-90 [1]: 123 ng·min/mL and 881 ng·min/mL and 181 ng·min/mL and 456 ng·min/mL and 166 ng·min/mL and 616 ng·min/mL
- Cmax [1]: 3.44 ng/mL and 15 ng/mL and 4 ng/mL and 9 ng/mL and 3 ng/mL and 10.4 ng/mL
- Half-Life [1]: 51 min and 140 min and 23 min and 7 min
- Angiotensin (1-7) concentration (ID 0.3 ml A [10 mg/ml in PBS], time point 0 min (before administration), individual rats): 0.23 ng/mL and 0.0 ng/mL and 1.54 ng/mL and 1.00 ng/mL and 1.84 ng/mL and 5.81 ng/mL
- Angiotensin (1-7) concentration (ID 0.3 ml A [10 mg/ml in PBS], time point 5 min, individual rats): 0.84 ng/mL and 12.3 ng/mL and 0.94 ng/mL and 0.88 ng/mL and 0.891 ng/mL and 9.24 ng/mL
- Angiotensin (1-7) concentration (ID 0.3 ml A [10 mg/ml in PBS], time point 10 min, individual rats): 3.44 ng/mL and 6.38 ng/mL and 1.08 ng/mL and 0.99 ng/mL and 1.12 ng/mL and 4.08 ng/mL
- Angiotensin (1-7) concentration (ID 0.3 ml A [10 mg/ml in PBS], time point 20 min, individual rats): 0.62 ng/mL and 13.3 ng/mL and 1.91 ng/mL and 1.79 ng/mL and 1.80 ng/mL and 2.05 ng/mL
- Angiotensin (1-7) concentration (ID 0.3 ml A [10 mg/ml in PBS], time point 40 min, individual rats): 0.27 ng/mL and 15.4 ng/mL and 1.22 ng/mL and 4.14 ng/mL and 1.30 ng/mL and 3.89 ng/mL
- Angiotensin (1-7) concentration (ID 0.3 ml A [10 mg/ml in PBS], time point 60 min, individual rats): 1.55 ng/mL and 6.27 ng/mL and 3.97 ng/mL and 8.75 ng/mL and 3.07 ng/mL and 10.4 ng/mL
- Angiotensin (1-7) concentration (ID 0.3 ml A [10 mg/ml in PBS], time point 90 min, individual rats): 2.61 ng/mL and 7.19 ng/mL and 0.78 ng/mL and 7.54 ng/mL and 1.23 ng/mL and 10.4 ng/mL
- AUC0-90 [2]: 19,502.2 ng*min/mL and 1,777.5 ng*min/mL and 422.8 ng*min/mL and 1,168.2 ng*min/mL and 2,100.6 ng*min/mL and 669.9 ng*min/mL
- Cmax [2]: >1000 ng/mL and 259.0 ng/mL and 19.3 ng/mL and 89.7 ng/mL and 60.7 ng/mL and 56.4 ng/mL
- Half-Life [2]: 9.3 min and 173.3 min and 23.8 min and 25.2 min and 21.6 min and 25.0 min
- Angiotensin (1-7) concentration (ID 0.3 ml B [10 mg/ml, 10 mg/ml LLC, 400 mM Citrate pH 3.5, 150 mM NaCl], time point 0 min (before administration), individual rats): 1.46 ng/mL
- Angiotensin (1-7) concentration (ID 0.3 ml B [10 mg/ml, 10 mg/ml LLC, 400 mM Citrate pH 3.5, 150 mM NaCl], time point 5 min, individual rats): >1000 ng/mL and 259 ng/mL and 3.48 ng/mL and 89.7 ng/mL and 60.7 ng/mL and 56.38 ng/mL
- Angiotensin (1-7) concentration (ID 0.3 ml B [10 mg/ml, 10 mg/ml LLC, 400 mM Citrate pH 3.5, 150 mM NaCl], time point 10 min, individual rats): >1000 ng/mL and 21 ng/mL and 19.3 ng/mL and 15.2 ng/mL and 59.6 ng/mL and 17.92 ng/mL
- Angiotensin (1-7) concentration (ID 0.3 ml B [10 mg/ml, 10 mg/ml LLC, 400 mM Citrate pH 3.5, 150 mM NaCl], time point 20 min, individual rats): 59.9 ng/mL and 7.35 ng/mL and 6.02 ng/mL (2×) and 18.4 ng/mL and 51.2 ng/mL
- Angiotensin (1-7) concentration (ID 0.3 ml B [10 mg/ml, 10 mg/ml LLC, 400 mM Citrate pH 3.5, 150 mM NaCl], time point 40 min, individual rats): 4.88 ng/mL and 5.6 ng/mL and 2.32 ng/mL and 5.05 ng/mL and 11.7 ng/mL and 1.11 ng/mL
- Angiotensin (1-7) concentration (ID 0.3 ml B [10 mg/ml, 10 mg/ml LLC, 400 mM Citrate pH 3.5, 150 mM NaCl], time point 60 min, individual rats): 4.74 ng/mL and 1.7 ng/mL and 3.99 ng/mL and 6.36 ng/mL and 10.9 ng/mL and 3.48 ng/mL
- Angiotensin (1-7) concentration (ID 0.3 ml B [10 mg/ml, 10 mg/ml LLC, 400 mM Citrate pH 3.5, 150 mM NaCl], time point 90 min, individual rats): 3.93 ng/mL and 3.99 ng/mL and 1.11 ng/mL and 4.43 ng/mL and 4.74 ng/mL and 3.39 ng/mL
- AUC0-90 [3]: 9,257 ng*min/mL and 20,442 ng*min/mL and 7,394 ng*min/mL and 2,252 ng*min/mL (2×) and 6,495 ng*min/mL
- Cmax [3]: 879.0 ng/mL and >1000 ng/mL and 468.0 ng/mL and 83.0 ng/mL (2×) and 735.0 ng/mL
- Half-Life [3]: 11.9 min and 29.1 min and 13.9 min and 18.3 min (2×) and 17.9 min
- Angiotensin (1-7) concentration (ID 0.3 ml C [10 mg/ml, Captopril 0.5 mg/ml, 10 mg/ml LLC, 400 mM Citrate pH 3.5, 150 mM NaCl], time point 0 min (before administration), Average): 1.1 ng/mL
- AUC0-90 [4]: 26,654 ng*min/mL and 1,008 ng*min/mL and 7,641 ng*min/mL and 10,668 ng*min/mL and 6,228 ng*min/mL and 3,862 ng*min/mL
- Cmax [4]: <1000 ng/mL and 33.5 ng/mL and 504 ng/mL and 746.0 ng/mL and 391.25 ng/mL and 432.85 ng/mL
- Half-Life [4]: 10.55 min and 7.97 min and 15.45 min and 11.94 min and 12.86 min and 25.62 min
- Angiotensin (1-7) concentration (ID 0.3 ml C [10 mg/ml, Captopril 5 mg/ml, 10 mg/ml LLC, 400 mM Citrate pH 3.5, 150 mM NaCl], time point 0 min (before administration), Average): 2.42 ng/mL
- Total mean A(1-7) exposure over the observation period (0.3 mL of 10 mg/mL A(1-7) formulated in PBS, 6 rats): 403 ng·min/mL
- Total mean A(1-7) exposure over the observation period (0.3 mL of 10 mg/mL A(1-7) with 0.5 mg/mL captopril (as printed in the text on Table 5), 10 mg/mL LLC, 400 mM Citrate, 150 mM NaCl pH 3.5, six rats): 9,399 ng*min/mL
- Total mean A(1-7) exposure over the observation period (0.3 mL of 10 mg/mL A(1-7) with 0.5 mg/mL captopril, 10 mg/mL LLC, 400 mM Citrate, 150 mM NaCl pH 3.5, seven rats (Table 4)): 7,152 ng*min/mL
- Total mean A(1-7) exposure over the observation period (0.3 mL of 10 mg/mL A(1-7) with 10 mg/mL LLC, 400 mM Citrate, 150 mM NaCl pH 3.5): 4,274 ng*min/mL
- Half-life and total exposure compared to the baseline profile of angiotensin (1-7) delivered in PBS (formulation according to the invention (citrate, LLC, with or without captopril), rat model mimicking oral delivery): significantly improved half-life and total exposure
- level at 0 h (rat, plasma, 3 mg per rat, pH 3.5, ID 0.3 ml B [10 mg/ml, 10 mg/ml LLC, 400 mM Citrate pH 3.5, 150 mM NaCl], time point 0 min (before administration), Average): 1.51 ng/mL
- level at 10 min (rat, plasma, 3 mg per rat, pH 3.5, ID 0.3 ml B [10 mg/ml, 10 mg/ml LLC, 400 mM Citrate pH 3.5, 150 mM NaCl], time point 10 min, Average): 204 ng/mL
- level at 20 min (rat, plasma, 3 mg per rat, pH 3.5, ID 0.3 ml B [10 mg/ml, 10 mg/ml LLC, 400 mM Citrate pH 3.5, 150 mM NaCl], time point 20 min, Average): 24.8 ng/mL
- level at 40 min (rat, plasma, 3 mg per rat, pH 3.5, ID 0.3 ml B [10 mg/ml, 10 mg/ml LLC, 400 mM Citrate pH 3.5, 150 mM NaCl], time point 40 min, Average): 5.11 ng/mL
- level at 1 h (rat, plasma, 3 mg per rat, pH 3.5, ID 0.3 ml B [10 mg/ml, 10 mg/ml LLC, 400 mM Citrate pH 3.5, 150 mM NaCl], time point 60 min, Average): 5.2 ng/mL
- level at 1.5 h (rat, plasma, 3 mg per rat, pH 3.5, ID 0.3 ml B [10 mg/ml, 10 mg/ml LLC, 400 mM Citrate pH 3.5, 150 mM NaCl], time point 90 min, Average): 3.6 ng/mL
- level at 0 h (rat, plasma, 3 mg, ID 0.3 ml A [10 mg/ml in PBS], time point 0 min (before administration), Average): 1.74 ng/mL
- level at 5 min (rat, plasma, 3 mg, ID 0.3 ml A [10 mg/ml in PBS], time point 5 min, Average): 4.18 ng/mL
- level at 10 min (rat, plasma, 3 mg, ID 0.3 ml A [10 mg/ml in PBS], time point 10 min, Average): 2.85 ng/mL
- level at 20 min (rat, plasma, 3 mg, ID 0.3 ml A [10 mg/ml in PBS], time point 20 min, Average): 3.58 ng/mL
- level at 40 min (rat, plasma, 3 mg, ID 0.3 ml A [10 mg/ml in PBS], time point 40 min, Average): 4.37 ng/mL
- level at 1 h (rat, plasma, 3 mg, ID 0.3 ml A [10 mg/ml in PBS], time point 60 min, Average): 5.67 ng/mL
- level at 1.5 h (rat, plasma, 3 mg, ID 0.3 ml A [10 mg/ml in PBS], time point 90 min, Average): 4.96 ng/mL
- level at 5 min (rat, plasma, 3 mg, pH 3.5, ID 0.3 ml B [10 mg/ml, 10 mg/ml LLC, 400 mM Citrate pH 3.5, 150 mM NaCl], time point 5 min, Average): 417 ng/mL
- AUC(0-t) (rat, plasma, other: intra-duodenal injection (ID), 3 mg, ID 0.3 ml A [10 mg/ml in PBS], Average (PK value of the mean concentrations), read-out: AUC0-90 (converted)): 6.73 ng·h/mL
- Cmax (rat, plasma, other: intra-duodenal injection (ID), 3 mg, ID 0.3 ml A [10 mg/ml in PBS], Average (PK value of the mean concentrations), read-out: Cmax): 5.7 ng/mL
- Half-Life (rat, plasma, other: intra-duodenal injection (ID), 3 mg, ID 0.3 ml A [10 mg/ml in PBS], Average (PK value of the mean concentrations), read-out: Half-Life): 155 min
